Experiments:
[1] = biological target: T1, Angiotensin II receptor (AT-1) type-1 (Rattus norvegicus, UniProt P29089+P25095); test: In vitro displacement of [125I]angiotensin II from rat liver (Angiotensin 1 receptor) membrane preparation
T1 sequence (P29089 whole entry): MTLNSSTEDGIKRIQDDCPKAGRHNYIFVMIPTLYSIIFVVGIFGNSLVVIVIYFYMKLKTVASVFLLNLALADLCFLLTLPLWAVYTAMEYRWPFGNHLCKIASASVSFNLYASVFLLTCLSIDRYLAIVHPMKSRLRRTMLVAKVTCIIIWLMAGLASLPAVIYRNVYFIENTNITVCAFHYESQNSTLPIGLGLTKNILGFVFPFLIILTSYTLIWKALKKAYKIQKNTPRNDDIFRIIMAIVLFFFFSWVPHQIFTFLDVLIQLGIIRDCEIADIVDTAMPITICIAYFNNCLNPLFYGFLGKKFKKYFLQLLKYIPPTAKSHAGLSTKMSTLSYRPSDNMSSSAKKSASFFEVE
T1 sequence (P25095 whole entry): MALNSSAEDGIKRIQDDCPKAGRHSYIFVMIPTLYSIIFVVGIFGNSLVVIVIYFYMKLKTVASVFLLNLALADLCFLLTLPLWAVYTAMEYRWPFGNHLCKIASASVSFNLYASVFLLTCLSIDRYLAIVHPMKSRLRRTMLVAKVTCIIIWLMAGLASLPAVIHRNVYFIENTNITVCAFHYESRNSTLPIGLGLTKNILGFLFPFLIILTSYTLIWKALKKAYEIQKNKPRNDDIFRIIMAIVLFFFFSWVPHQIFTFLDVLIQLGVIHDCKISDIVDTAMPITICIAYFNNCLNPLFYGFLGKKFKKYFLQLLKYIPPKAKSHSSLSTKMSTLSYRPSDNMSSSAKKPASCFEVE

[2] = biological target: T2, Angiotensin II receptor (Rattus norvegicus) (UniProt P29089+P25095+P35351); test: In vivo inhibition of pressor response induced by Angiotensin II (AII) following intravenous administration to pithed rats; assay type: functional, organism-based
T2 sequence (P35351 whole entry, looked up, one chain of several): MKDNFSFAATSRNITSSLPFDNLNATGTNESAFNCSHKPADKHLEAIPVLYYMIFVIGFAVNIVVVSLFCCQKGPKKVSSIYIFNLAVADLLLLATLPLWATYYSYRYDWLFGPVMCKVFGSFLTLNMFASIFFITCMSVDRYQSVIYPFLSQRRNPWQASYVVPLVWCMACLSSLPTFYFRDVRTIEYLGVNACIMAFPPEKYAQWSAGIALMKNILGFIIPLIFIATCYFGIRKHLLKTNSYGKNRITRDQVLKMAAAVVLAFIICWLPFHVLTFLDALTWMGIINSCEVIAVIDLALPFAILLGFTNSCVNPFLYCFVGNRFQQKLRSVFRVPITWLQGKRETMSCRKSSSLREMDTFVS

[3] = biological target: T2, Angiotensin II receptor (Rattus norvegicus); test: In vivo inhibition of pressor response induced by Angiotensin II (AII) following oral administration to pithed rats; assay type: functional, organism-based

| SMILES | IC50 [1] | ID50 [2] | ID50 [3] |
| --- | --- | --- | --- |
| CCCCc1nc(SC(F)F)c(C(=O)O)n1Cc1ccc(-c2ccccc2S(=O)(=O)NC(=O)Cc2ccccc2)cc1 | 150 pM | 0.36 mg/kg | 2.2 mg/kg |
| CCCc1nc(SC(F)F)c(C(=O)O)n1Cc1ccc(-c2ccccc2S(=O)(=O)NC(=O)CC2CCCCC2)cc1 | 70 pM | 0.22 mg/kg | 1.1 mg/kg |
| CCCc1nc(SC(F)F)c(C(=O)O)n1Cc1ccc(-c2ccccc2S(=O)(=O)NC(=O)CCCc2ccccc2)cc1 | 700 pM | 0.52 mg/kg | – |
| CCCc1nc(SC)c(C(=O)O)n1Cc1ccc(-c2ccccc2S(=O)(=O)NC(=O)NC2CCCCC2)cc1 | 500 pM | – | – |
| CCCc1nc(SC(F)F)c(C(=O)O)n1Cc1ccc(-c2ccccc2S(=O)(=O)NC(=O)C(C)c2ccccc2)cc1 (configuration not stated) | 300 pM | – | – |
| CCCc1nc(SC(F)F)c(C(=O)O)n1Cc1ccc(-c2ccccc2S(=O)(=O)NC(=O)Cc2ccc3c(c2)OCO3)cc1 | 300 pM | 0.35 mg/kg | 10 mg/kg |
| CCCc1nc(SC(F)F)c(C(=O)O)n1Cc1ccc(-c2ccccc2S(=O)(=O)NC(=O)CCc2ccccc2)cc1 | 100 pM | 0.64 mg/kg | – |
| CCCCc1nc(SC)c(C(=O)O)n1Cc1ccc(-c2ccccc2S(=O)(=O)NC(=O)NCC)cc1 | 200 pM | 0.17 mg/kg | 1.1 mg/kg |
| CCCCc1nc(SC)c(C(=O)O)n1Cc1ccc(-c2ccccc2S(=O)(=O)NC(=O)NCCC)cc1 | 500 pM | 0.11 mg/kg | 0.7 mg/kg |
| CCCc1nc(SC)c(C(=O)O)n1Cc1ccc(-c2ccccc2S(=O)(=O)NC(=O)NCc2ccccc2)cc1 | 200 pM | 0.22 mg/kg | 1.4 mg/kg |
| CCCCc1nc(SC(F)F)c(C(=O)O)n1Cc1ccc(-c2ccccc2S(=O)(=O)NC(=O)CC2CCCCC2)cc1 | 200 pM | 0.6 mg/kg | 1.7 mg/kg |
| CCCCc1nc(SC)c(C(=O)O)n1Cc1ccc(-c2ccccc2S(=O)(=O)NC(=O)NCC2CCCCC2)cc1 | 100 pM | 0.35 mg/kg | – |
| CCCc1nc(SC)c(C(=O)O)n1Cc1ccc(-c2ccccc2S(=O)(=O)NC(=O)Nc2ccc(C)cc2)cc1 | 1000 pM | 0.87 mg/kg | – |
| CCCCc1nc(SC(F)F)c(C(=O)O)n1Cc1ccc(-c2ccccc2S(=O)(=O)NC(=O)CCC)cc1 | 500 pM | 0.09 mg/kg | 0.8 mg/kg |
| CCCc1nc(SC(F)F)c(C(=O)O)n1Cc1ccc(-c2ccccc2S(=O)(=O)NC(=O)Cc2cccs2)cc1 | 70 pM | 0.13 mg/kg | 3 mg/kg |
| CCCc1nc(SC(F)F)c(C(=O)O)n1Cc1ccc(-c2ccccc2S(=O)(=O)NC(=O)Cc2ccc(F)cc2)cc1 | 100 pM | 0.43 mg/kg | – |

| SMILES | IC50 [1] | ID50 [2] | ID50 [3] |
| --- | --- | --- | --- |
| CCCc1nc(SC(F)F)c(C(=O)O)n1Cc1ccc(-c2ccccc2S(=O)(=O)NC(=O)CCc2cccs2)cc1 | 30 pM | 0.33 mg/kg | 3.1 mg/kg |
| CCCCNC(=O)NS(=O)(=O)c1ccccc1-c1ccc(Cn2c(CCCC)nc(SC)c2C(=O)O)cc1 | 200 pM | 0.09 mg/kg | 0.2 mg/kg |
| CCc1nc(SC)c(C(=O)O)n1Cc1ccc(-c2ccccc2S(=O)(=O)NC(=O)NCC2CCCCC2)cc1 | 1300 pM | 1.84 mg/kg | > 10 mg/kg |
| CCc1nc(SC)c(C(=O)O)n1Cc1ccc(-c2ccccc2S(=O)(=O)NC(=O)NCc2ccccc2)cc1 | 100 pM | 1.37 mg/kg | – |
| CCCc1nc(SC)c(C(=O)O)n1Cc1ccc(-c2ccccc2S(=O)(=O)NC(=O)NCc2cccs2)cc1 | 100 pM | – | 1 mg/kg |
| CCCc1nc(SC(F)F)c(C(=O)O)n1Cc1ccc(-c2ccccc2S(=O)(=O)NC(=O)Cc2ccccc2)cc1 | 200 pM | 0.26 mg/kg | 2 mg/kg |
| CCCCc1nc(SC)c(C(=O)O)n1Cc1ccc(-c2ccccc2S(=O)(=O)NC(=O)N(c2ccccc2)c2ccccc2)cc1 | 1200 pM | 5.8 mg/kg | – |
| CCCc1nc(SC(F)F)c(C(=O)O)n1Cc1ccc(-c2ccccc2S(=O)(=O)NC(=O)Cc2ccccc2Cl)cc1 | 300 pM | 0.8 mg/kg | – |
| CCCCc1nc(SC)c(C(=O)O)n1Cc1ccc(-c2ccccc2S(=O)(=O)NC(=O)NCc2ccccc2)cc1 | 100 pM | – | – |
| CCCc1nc(SC(F)F)c(C(=O)O)n1Cc1ccc(-c2ccccc2S(=O)(=O)NC(=O)Cc2ccc3ccccc3c2)cc1 | 100 pM | – | – |
| CCCCc1nc(SC)c(C(=O)O)n1Cc1ccc(-c2ccccc2S(=O)(=O)NC(=O)NC(c2ccccc2)c2ccccc2)cc1 | 400 pM | – | – |
| CCCc1nc(SC)c(C(=O)O)n1Cc1ccc(-c2ccccc2S(=O)(=O)NC(=O)Nc2ccccc2)cc1 | 2300 pM | 0.52 mg/kg | – |
| CCCc1nc(SC)c(C(=O)O)n1Cc1ccc(-c2ccccc2S(=O)(=O)NC(=O)NCC2CCCCC2)cc1 | 100 pM | 0.3 mg/kg | 1.5 mg/kg |
| CCCc1nc(SC)c(C(=O)O)n1Cc1ccc(-c2ccccc2S(=O)(=O)NC(=O)NCC2CCCC2)cc1 | 100 pM | – | 1 mg/kg |
| CCCCc1nc(SC)c(C(=O)O)n1Cc1ccc(-c2ccccc2S(=O)(=O)NC(=O)NC)cc1 | 1900 pM | 0.27 mg/kg | 4.9 mg/kg |

Reference: ChEMBL document CHEMBL1128069, “Balanced AT1 and AT2 angiotensin II antagonists. I. New orally active 5-carboxyl imidazolyl biphenyl sulfonylureas” (Bioorg Med Chem Lett, 1995)
